Measurements taken from patent publication US20250282735A1, “BICYCLE COMPOUNDS AS TEAD INHIBITOR” (DONG-A ST CO., LTD., priority 2022, published 2025).

Key:
Format in all cases: cell-based
MSTO-211H cells = experiment: Proliferation assay (EdU incorporation), MSTO-211H; conditions: Homo sapiens, 72 h, YAP-driven MSTO-211H (LATS1 mutation), 3 days with inhibitor, 1% serum
Protocol: (§1) The anti-proliferative activity of TEAD inhibitors was evaluated in cells with different properties for YAP; “YAP-driven” cells (MSTO-211H, NCI-H226) in which YAP located in the nucleus and “YAP-independent” cells (OCM1, NCI-H28) where YAP located in the cytoplasm. […] TEAD inhibitors were evaluated with cell lines with these YAP profiling and mutational status.
(§2) The next day, replace it with cell starvation medium containing 1% serum. After one day of growth in the starvation medium, the cells were incubated for 3 days with TEAD inhibitors in a concentration range of 0.01-10 μM. After 3 days, EdU (Invitrogen) at a concentration of 10 µM was added to the starvation medium and incubated for an additional 24 hours. After removing the starvation medium remaining in each well, wash the wells with PBS. Cells were fixed with 4% paraformaldehyde (Electron microscopy sciences) at room temperature for 20 minutes. After removing the fix solution remaining in each well, wash the wells with PBS and the cells were permeabilized for 40 minutes by adding 0.5% triton X-100 (Sigma Aldrich). After removing the permeabilization solution remaining in each well, the EdU labeling was performed according to the instructions of the manufacturer's instructions (Click-iT™ Cell Reaction Buffer Kit, Invitrogen). After the Click reaction for EdU labeling, nuclei were stained with […] (Thermo Scientific) for total cell count analysis. After plate preparation for detection, Image acquisition was performed using the ImageXpress Micro XLS. The acquired images were analyzed using MetaXpress software (molecular devices). Through this experimental method, it was possible to confirm the inhibitory activity of TEAD inhibitors by detection EdU incorporated into proliferating cells.
(§3) IC50 for cell proliferation inhibition activity are shown in the Table 2 below and designated within the following ranges. [+++: ≤0.1 μM, ++: >0.1 μM to ≤1 μM, +: >1 μM to ≤10μ, −: >10 μM]

[1] = system: TEAD reporter-containing human breast cancer cell line MCF7; experiment: TEAD reporter (luciferase) assay; conditions: TEAD reporter MCF7 cells, 24 hours treatment, 1% serum media
Protocol: The TEAD reporter-containing human breast cancer cell line MCF7 (60618, BPS bioscience) was cultured according to the manufacturer's instructions. Cells were plated in 96-well white plates at a density of 30,000 per well and incubated overnight. The following day cells were treated with small molecules in 1% serum media (0.1% v/v DMSO). After 24 hours of the treatment, cell viability was evaluated by using CCK-8 reagent (CK04, Dojindo) and measuring absorbance at 450 nm. Then, the assay for luciferase activity was performed using Dual-Glo® Luciferase Assay System (Promega, E2940) following the manufacturer's instructions. Luminescence intensity was measured and the potency of the compounds was determined by IC50 value generated from non-linear regression analysis of the dose-response curves.
IC50 for luciferase activity are shown in the Table 1 below and designated within the following ranges. [+++: ≤0.1 μM, ++: >0.1 μM to ≤1 μM, +: >1 μM to ≤10 μM, −: >10 μM]

NCI-H226 cells = experiment: Proliferation assay (EdU incorporation), NCI-H226; conditions: Homo sapiens, 72 h, YAP-driven NCI-H226 (NF2 mutation), 3 days with inhibitor, 1% serum
Protocol: as §1, §2, §3

Compound | IC50 [1] [nM] | IC50 (NCI-H226 cells) [nM] | IC50 (MSTO-211H cells) [nM]
C=CC(=O)Nc1ccc2c(c1)c(/C=C/C1CCC(F)(F)CC1)nn2C(C)C [Compound 5, (E)-N-(3-(2-(4,4-Difluorocyclohexyl)vinyl)-1-isopropyl-1H-indazol-5-yl)acrylamide] | 100 to 1000 | – | 100 to 1000
[2H]C([2H])([2H])n1cc(/C=C/c2ccc(Cl)cc2)c2cc(NC(=O)C=C)cnc21 [Example 121, (E)-N-(3-(4-Chlorostyryl)-1-(methyl-d3)-1H-pyrrolo[2,3-b]pyridin-5-yl)acrylamide] | 100 to 1000 | – | ≤ 100
C=CC(=O)Nc1cc(F)c2c(c1)c(/C=C/c1ccc(Cl)cc1)cn2C [Compound 37, (E)-N-(3-(4-Chlorostyryl)-7-fluoro-1-methyl-1H-indol-5-yl)acrylamide] | 100 to 1000 | – | ≤ 100
C=CC(=O)Nc1cnc2c(c1)c(/C=C/c1ccc(Cl)cc1)cn2C(F)F [Example 128, (E)-N-(3-(4-Chlorostyryl)-1-(difluoromethyl)-1H-pyrrolo[2,3-b]pyridin-5-yl)acrylamide] | – | 100 to 1000 | 100 to 1000
C=CC(=O)Nc1cnc2c(c1)c(-c1ccc(C3CC3)cc1)cn2C [Example 106, N-(3-(4-Cyclopropylphenyl)-1-methyl-1H-pyrrolo[2,3-b]pyridin-5-yl)acrylamide] | 100 to 1000 | – | ≤ 100
C=CC(=O)Nc1cc(F)c2c(c1)c(/C=C/C1CCC(F)(F)CC1)cn2C [Compound 36, (E)-N-(3-(2-(4,4-Difluorocyclohexyl)vinyl)-7-fluoro-1-methyl-1H-indol-5-yl)acrylamide] | 100 to 1000 | – | ≤ 100
C=CC(=O)Nc1cnc2c(c1)c(/C=C/c1ccc(Cl)cc1)nn2CC [Compound 33, (E)-N-(3-(4-Chlorostyryl)-1-ethyl-1H-pyrazolo[3,4-b]pyridin-5-yl)acrylamide] | 1000 to 10000 | – | ≤ 100
C=CC(=O)Nc1cnc2c(c1)c(/C=C/C1CCC(F)(F)CC1)cn2CC [Compound 17, (E)-N-(3-(2-(4,4-Difluorocyclohexyl)vinyl)-1-ethyl-1H-pyrrolo[2,3-b]pyridin-5-yl)acrylamide] | – | ≤ 100 | 100 to 1000
Cn1cc(/C=C/c2ccc(Cl)cc2)c2cc(NC(=O)CCl)cnc21 [Example 70, (E)-2-Chloro-N-(3-(4-chlorostyryl)-1-methyl-1H-pyrrolo[2,3-b]pyridin-5-yl) acetamide] | 1000 to 10000 | – | 1000 to 10000
C=CC(=O)Nc1cnc2c(c1)c(-c1ccc(Cl)cc1)cn2C(F)F [Example 132, N-(3-(4-Chlorophenyl)-1-(difluoromethyl)-1H-pyrrolo[2,3-b]pyridin-5-yl)acrylamide] | 1000 to 10000 | – | 100 to 1000
C=C(F)C(=O)Nc1cnc2c(c1)c(/C=C/c1ccc(Cl)cc1)cn2C [Example 118, (E)-N-(3-(4-Chlorostyryl)-1-methyl-1H-pyrrolo[2,3-b]pyridin-5-yl)-2-fluoroacrylamide] | 1000 to 10000 | – | ≤ 100
C=CC(=O)Nc1cnc2c(c1)c(/C=C/c1ccc(Cl)cc1)cn2C1CCCC1 [Compound 10, (E)-N-(3-(4-Chlorostyryl)-1-cyclopentyl-1H-pyrrolo[2,3-b]pyridin-5-yl)acrylamide] | 1000 to 10000 | – | 100 to 1000
C=CC(=O)Nc1cnc2c(c1)c(/C=C/C1CCC(F)(F)CC1)cn2C(F)F [Example 130, (E)-N-(3-(2-(4,4-Difluorocyclohexyl)vinyl)-1-(difluoromethyl)-1H-pyrrolo[2,3-b]pyridin-5-yl)acrylamide] | 100 to 1000 | – | 100 to 1000
C=CC(=O)Nc1cnc2c(c1)c(/C=C/c1ccc(F)cc1)cn2C [Compound 47, (E)-N-(3-(4-Fluorostyryl)-1-methyl-1H-pyrrolo[2,3-b]pyridin-5-yl)acrylamide] | – | ≤ 100 | ≤ 100
C=CC(=O)Nc1cnc2c(c1)c(-c1ccc(C(F)(F)F)cc1)cn2C [Compound 51, N-(1-Methyl-3-(4-(trifluoromethyl)phenyl)-1H-pyrrolo[2,3-b]pyridin-5-yl)acrylamide] | 1000 to 10000 | – | ≤ 100
C=CC(=O)Nc1ccc2c(c1)c(/C=C/c1ccc(Cl)cc1)cn2CC [Compound 26, (E)-N-(3-(4-Chlorostyryl)-1-ethyl-1H-indol-5-yl)acrylamide] | 100 to 1000 | – | 100 to 1000
C=CC(=O)Nc1cnc2c(c1)c(-c1cccc(/C=C/C3CCC(F)(F)CC3)c1)cn2C [Example 85, (E)-N-(3-(3-(2-(4,4-Difluorocyclohexyl)vinyl)phenyl)-1-methyl-1H-pyrrolo[2,3-b]pyridin-5-yl)acrylamide] | 100 to 1000 | – | 100 to 1000
C=CC(=O)Nc1cnc2c(c1)c(/C=C/c1ccc(Cl)s1)cn2C [Example 81, (E)-N-(3-(2-(5-Chlorothiophen-2-yl)vinyl)-1-methyl-1H-pyrrolo[2,3-b]pyridin-5-yl)acrylamide] | 100 to 1000 | – | ≤ 100

The next lines start with results.

IC50 [1] [nM] | IC50 (NCI-H226 cells) [nM] | Compound | IC50 (MSTO-211H cells) [nM]
100 to 1000 | – | C=CC(=O)Nc1ccc2c(c1)c(/C=C/C1CCC(F)(F)CC1)cn2C(C)C [Compound 27, (E)-N-(3-(2-(4,4-Difluorocyclohexyl)vinyl)-1-isopropyl-1H-indol-5-yl)acrylamide] | 100 to 1000
100 to 1000 | – | C=CC(=O)Nc1cnc2c(c1)c(-c1ccc(SCC)cc1)cn2C [Example 111, N-(3-(4-(Ethylthio)phenyl)-1-methyl-1H-pyrrolo[2,3-b]pyridin-5-yl)acrylamide] | ≤ 100
100 to 1000 | – | C=CC(=O)Nc1cnc2c(c1)c(/C=C/c1ccc(Cl)cc1)nn2C(C)C [Compound 35, (E)-N-(3-(4-Chlorostyryl)-1-isopropyl-1H-pyrazolo[3,4-b]pyridin-5-yl)acrylamide] | 100 to 1000
≤ 100 | – | C=CC(=O)Nc1cnc2c(c1)c(/C=C/C1CCC(F)(F)CC1)nn2C(C)C [Compound 34, (E)-N-(3-(2-(4,4-Difluorocyclohexyl)vinyl)-1-isopropyl-1H-pyrazolo[3,4-b]pyridin-5-yl)acrylamide] | 100 to 1000
≤ 100 | – | C=CC(=O)Nc1cnc2c(c1)c(CCC1CCC(F)(F)CC1)cn2C [Example 64, N-(3-(2-(4,4-Difluorocyclohexyl)ethyl)-1-methyl-1H-pyrrolo[2,3-b]pyridin-5-yl)acrylamide] | ≤ 100
≤ 100 | – | C=CC(=O)Nc1ccc2c(c1)c(C1=CCC(F)(F)CC1)cn2C [Compound 23, N-(3-(4,4-Difluorocyclohex-1-en-1-yl)-1-methyl-1H-indol-5-yl)acrylamide] | 100 to 1000
≤ 100 | – | C=CC(=O)Nc1cnc2c(c1)c(-c1ccc3ccccc3c1)cn2C [Example 107, N-(1-Methyl-3-(naphthalen-2-yl)-1H-pyrrolo[2,3-b]pyridin-5-yl)acrylamide] | ≤ 100
≤ 100 | – | C=CC(=O)Nc1ccc2c(c1)c(C1CCC(C)(C)CC1)cn2C [Example 122, N-(3-(4,4-dimethylcyclohexyl)-1-methyl-1H-indol-5-yl)acrylamide] | 100 to 1000
≤ 100 | – | C=CC(=O)Nc1cnc2c(c1)c(/C=C/C1CCC(F)(F)CC1)nn2CC [Compound 32, (E)-N-(3-(2-(4,4-Difluorocyclohexyl)vinyl)-1-ethyl-1H-pyrazolo[3,4-b]pyridin-5-yl)acrylamide] | 100 to 1000
